Assay [1] relates to (R)-2-octanol dehydrogenase. The assay can be described thus: Residual (R)-2-octanol dehydrogenase activity after treatment with reagents. The assay is classed as biochemical, Pichia finlandica. Here is the method: The (R)-2-octanol dehydrogenase was treated with various reagents at 30° C. for 30 minutes and the (R)-2-octanol dehydrogenase activity was measured.
The test system of assay [2] is (R)-2-octanol dehydrogenase. Description: Reduction activity of the enzyme of Example 3 on various ketones, NADH as coenzyme. The assay is classed as biochemical, Pichia finlandica. The procedure: (§1) In the present invention, reduction activity on 4-chloroacetoacetic acid ester can be measured as follows. The activity can be validated by incubating at 30° C. the reaction mixture containing potassium phosphate buffer (pH 6.5, 100 mM), 0.2 mM NADH, 20 mM ethyl 4-chloroacetoacetate, and the enzyme and by measuring decrease of absorbance at 340 nm accompanying decrease of NADH. 1 U was defined as the amount of the enzyme catalyzing decrease of 1 μmol of NADH for 1 minute. Quantification of proteins can be done by dye binding method using the protein assay kit (BIORAD).
The enzyme of Example 3 was reacted with various ketones and its reduction activity was measured.

The test system of assay [3] is (R)-2-octanol dehydrogenase. The assay can be described thus: Reduction activity of the enzyme of Example 35 on various ketones, NADH as coenzyme. The assay is classed as biochemical, Candida utilis. The procedure:
as §1
The enzyme of Example 35 was also reacted with various ketones and its reduction activity was measured. […] As a result, the relative activity was 26.6% for 2-octanone and 25.3% for acetophenone.

For assay [4], the system named is (R)-2-octanol dehydrogenase. The assay can be described thus: Oxidation activity of (R)-2-octanol dehydrogenase on various alcohols, NAD+ as coenzyme. The assay is classed as biochemical, Pichia finlandica. The conditions noted are these: oxidation activity of (R)-2-octanol taken as 100. The procedure:
(§2) On the other hand, oxidation activity on (R)-2-octanol can be measured as follows. The activity can be validated by incubating at 30° C. the reaction mixture containing Tris-HCl buffer (pH 8.5, 50 mM), 2.5 mM NAD^+, 5 mM (R)-2-octanol, and the enzyme and by measuring increase of absorbance at 340 nm accompanying generation of NADH. 1 U was defined as the amount of the enzyme catalyzing generation of 1 μmol of NADH for 1 minute.
The (R)-2-octanol dehydrogenase was reacted with various alcohols and its oxidation activity was measured.

In assay [5] the test system is (R)-2-octanol dehydrogenase. The assay can be described thus: Activation of (R)-2-octanol dehydrogenase by reagents. Type of assay: biochemical, Pichia finlandica. As to conditions: for Relative activity: reagent 1 mM, activity without reagents = 100. The procedure: The activation effect of (R)-2-octanol dehydrogenase in various reagents was measured.
For assay [6], the system named is (R)-2-octanol dehydrogenase. The assay can be described thus: Oxidation activity of (R)-2-octanol dehydrogenase on various alcohols, NAD+ as coenzyme. The assay is classed as biochemical, Candida utilis. The conditions noted are these: oxidation activity of (R)-2-octanol taken as 100. Here is the method: as §2
The (R)-2-octanol dehydrogenase was reacted with various alcohols and its oxidation activity was measured. […] As a result, the relative activity was 6.7% for (S)-2-octanol, 8.3% for 2-propanol, and 86% for (R)-1-phenylethanol.

Setting [7] is: reagent 1 mM, 30° C. for 30 minutes, enzyme treated without reagents = 100.
Where [8] appears, read: 4-chloroacetoacetic acid ethyl ester taken as 100, NADH.
[9] abbreviates: reduction activity of 4-chloroacetoacetic acid ethyl ester taken as 100, NADH as coenzyme.
The mark [10] stands for this setting: treated at 30° C. for 30 minutes.
Where [11] appears, read: reagent 0.01 mM, 30° C. for 30 minutes, enzyme treated without reagents = 100.

Read-outs that look alike come from different tables or passages of the source.

As to `[Cl][Fe][Cl]` [FeCl2], in assay [1] (setting [7]), the Residual activity was 93%. For `CCCCCCC(C)=O` [2-Octanone], the “relative activity, reduction reaction” value was determined as 31.2% in assay [2] (setting [8]), 31.2 in assay [2] (setting [9]), 26.6% in assay [3] (setting [8]) and 26.6 in assay [3] (setting [9]). For the compound `CCCCCCCCO` [1-Octanol], the “relative activity, oxidation reaction” value in assay [4] (NAD+ as coenzyme) amounted to 1.72.

As to `[Ca+2].[Cl-].[Cl-]` [CaCl2Ñ2H2O, calcium chloride], in assay [1], the Residual activity is on record as 174% and the “effect of reagent on the enzyme (inhibition / stabilization), in words” value (from here on “effect … (inhibition / stabilization), in words”) was “stabilized”. Consider `O.O.[Ba+2].[Cl-].[Cl-]` [BaCl2Ñ2H2O], for which the Residual activity in assay [1] (setting [7]) is 102%. In the case of `CCOC(=O)CC(=O)CCl` [Ethyl 4-chloroacetoacetate], the “relative activity, reduction reaction” value in assay [2] (setting [9]) and in assay [3] (setting [9]) was 100 throughout. As for `O=C([O-])CN(CCN(CC(=O)[O-])CC(=O)O)CC(=O)O.[Na+].[Na+]` [EDTAÑ2Na, ethylenediaminetetraacetic acid 2Na], in assay [1] (setting [7]), the Residual activity is 81%. The “effect … (inhibition / stabilization), in words” value in assay [1] (setting [10]) is “slightly inhibited”. Regarding `CCOC(=O)C[C@H](C)O` [Ethyl (S)-3-hydroxybutyrate], in assay [4] (NAD+ as coenzyme), the “relative activity, oxidation reaction” value is reported as 1.03. Turning to `CC(C)=O` [Acetone], in assay [2] (setting [9]), the “relative activity, reduction reaction” value is 1.82. `CC(=O)c1ccccc1` [Acetophenone]: the “relative activity, reduction reaction” value came out at 45% in assay [2] (setting [8]), 45.3 in assay [2] (setting [9]), 25.3% in assay [3] (setting [8]) and 25.3 in assay [3] (setting [9]). On to `O=S(=O)(O)O` [sulphate ion], for which the “activation of the enzyme, in words” value in assay [5] is “activated”. Consider MnSO4Ñ4-5H2O, for which the Relative activity in assay [5] came to 121%.

As to `CCOC(=O)CC(C)=O` [Ethyl acetoacetate], in assay [2] (setting [9]), the “relative activity, reduction reaction” value came to 106. For `CCN1C(=O)C=CC1=O` [N-ethylmaleimide], in assay [1] (setting [7]), the Residual activity is 147%. The “effect … (inhibition / stabilization), in words” value in assay [1] (setting [10]) was “stabilized”.

With `O=S(=O)([O-])[O-].[Mg+2]` [MgSO4], the Relative activity in assay [5] came out at 125%.

As to `CCO` [Ethanol], the “relative activity, oxidation reaction” value in assay [4] (NAD+ as coenzyme) is reported as 0.688. Consider manganese chloride [MnCl2Ñ4H2O], for which the Residual activity in assay [1] (setting [7]) worked out at 185%. In assay [1] (setting [10]), the “effect … (inhibition / stabilization), in words” value is “stabilized”. Also, the Relative activity in assay [5] was found to be 114%. `CCC(C)=O` [2-Butanone]: the “relative activity, reduction reaction” value in assay [2] (setting [9]) came out at 7.99. For `OCC[C@H](O)c1ccccc1` [(S)-1-phenyl-1,3-propanediol], in assay [4] (NAD+ as coenzyme), the “relative activity, oxidation reaction” value is on record as 0.258. The same measure, in the same setting: for `OC1CCCCC1` [Cyclohexanol] the value was 0.172.

Take `[Cl-].[Cl-].[Mg+2]` [MgCl2Ñ6H2O, magnesium chloride]: in assay [1], the Residual activity was 185% and the “effect … (inhibition / stabilization), in words” value was “stabilized”. In addition, in assay [5], the Relative activity came to 122%.

As for `O[C@H](CS)[C@H](O)CS` (racemic) [Dithiothreitol], the Residual activity in assay [1] (setting [7]) was found to be 123%.

As to `CC(O)COc1ccccc1` (centres unmarked) [1-Phenoxy-2-propanol], the “relative activity, oxidation reaction” value in assay [4] (NAD+ as coenzyme) stood at 15.5. With `OCC[C@@H](O)c1ccccc1` [(R)-1-phenyl-1,3-propanediol], the “relative activity, oxidation reaction” value in assay [4] (NAD+ as coenzyme) came to 0.344. In the case of `CCOC(=O)C[C@H](O)CCl` [Ethyl (S)-4-chloro-3-hydroxybutyrate], the “relative activity, oxidation reaction” value in assay [4] (NAD+ as coenzyme) worked out at 2.24. As for `O=S(=O)(F)Cc1ccccc1` [Phenylmethylsulfonyl fluoride], the Residual activity in assay [1] (setting [7]) turned out to be 111%.

As to `C[C@@H](O)CCO` [(R)-1,3-butanediol], in assay [4] (NAD+ as coenzyme), the “relative activity, oxidation reaction” value amounted to 1.29.

With (R)-2-butanol, the “relative activity, oxidation reaction” value in assay [4] (NAD+ as coenzyme) stood at 49.3.

For the compound `O.O.O.O.O.O.[Cl-].[Cl-].[Co+2]` [CoCl2Ñ6H2O], in assay [1] (setting [7]), the Residual activity amounted to 99%. Turning to `CCCCCCC(C)O` (centres unmarked) [2-Octanol], the “relative activity, oxidation reaction” value in assay [4] (NAD+ as coenzyme) is 77.8; in assay [6] (NAD+ as coenzyme), 8.3. In the case of `CCOC(=O)C[C@@H](O)CCl` [Ethyl (R)-4-chloro-3-hydroxybutyrate], in assay [4] (NAD+ as coenzyme), the “relative activity, oxidation reaction” value is 0.172. For `C[C@H](O)CCO` [(S)-1,3-butanediol], in assay [4] (NAD+ as coenzyme), the “relative activity, oxidation reaction” value is listed as 0.516. As to `O.O.O.O.O.O.[Cl][Ni][Cl]` [NiCl2Ñ6H2O], in assay [1] (setting [7]), the Residual activity worked out at 103%.

For the compound `CCCCCC[C@@H](C)O` [(R)-2-octanol], the “relative activity, oxidation reaction” value in assay [4] (NAD+ as coenzyme) and in assay [6] (NAD+ as coenzyme) was 100 each time.

For `CCCCC(C)O` (centres unmarked) [2-Hexanol], the “relative activity, oxidation reaction” value in assay [4] (NAD+ as coenzyme) was determined as 54.1. With `CC(C)O` [2-Propanol], the “relative activity, oxidation reaction” value in assay [4] (NAD+) came to 6.8%; in assay [4] (NAD+ as coenzyme) it was 6.79; in assay [6] (NAD+), 8.3%. With `c1cnc2c(c1)ccc1cccnc12` [o-Phenanthroline], the Residual activity in assay [1] (setting [7]) is reported as 162%. For the same compound, the “effect … (inhibition / stabilization), in words” value in assay [1] (setting [10]) is listed as “stabilized”.

Take `Cl.NO` [NH2OHÑHCl]: the Residual activity in assay [1] (setting [11]) amounted to 99%. `CCOC(=O)C[C@@H](C)O` [Ethyl (R)-3-hydroxybutyrate]: the “relative activity, oxidation reaction” value in assay [4] (NAD+ as coenzyme) was 41.1. Consider `O.O.O.O.O.O.O.O=S(=O)([O-])[O-].[Zn+2]` [ZnSO4Ñ7H2O], for which the Relative activity in assay [5] turned out to be 110%. On to `[Cl-].[Cl-].[Zn+2]` [ZnCl2], for which the Residual activity in assay [1] (setting [7]) worked out at 96%. The Relative activity in assay [5] is 105%. With `[Mg]` [magnesium], the “activation of the enzyme, in words” value in assay [5] was “activated”.

For `O=c1c(O)c(-c2ccc(O)c(O)c2)oc2cc(O)cc(O)c12` [Quercetin], the Residual activity in assay [1] (reagent 0.1 mM, 30° C. for 30 minutes, enzyme treated without reagents = 100) was determined as 99%. For the compound `C[C@@H](O)c1ccccc1` [(R)-1-phenylethanol], the “relative activity, oxidation reaction” value came out at 255% in assay [4] (NAD+), 255 in assay [4] (NAD+ as coenzyme), 86% in assay [6] (NAD+) and 86.7 in assay [6] (NAD+ as coenzyme). `CCCCCC[C@H](C)O` [(S)-2-octanol]: the “relative activity, oxidation reaction” value in assay [4] (NAD+) came out at 4.7%; in assay [4] (NAD+ as coenzyme), 4.73; in assay [6] (NAD+), 6.7%; in assay [6] (NAD+ as coenzyme), 6.7. Take `C[C@H](O)c1ccccc1` [(S)-1-phenylethanol]: the “relative activity, oxidation reaction” value came to 1.81 in assay [4] (NAD+ as coenzyme) and 6.7 in assay [6] (NAD+ as coenzyme).

In the case of `CCC=O` [Propionaldehyde], the “relative activity, reduction reaction” value in assay [2] (setting [9]) turned out to be 18.4. On the same count and under the same terms, for `CC(=O)COc1ccccc1` [1-Phenoxy-2-propanone] the value was 54.2.

Take (S)-2-butanol: the “relative activity, oxidation reaction” value in assay [4] (NAD+ as coenzyme) is recorded as 7.31. For `[Mn+2]` [manganese], the “activation of the enzyme, in words” value in assay [5] was “activated”.

As to `[Zn+2]` [zinc], the “activation of the enzyme, in words” value in assay [5] was “activated”.

Turning to `O=S(=O)([O-])[O-].[Cu+2]` [CuSO4], the Residual activity in assay [1] (setting [7]) is 100%. For `CC(=O)CCO` [4-Hydroxy-2-butanone], in assay [2] (setting [9]), the “relative activity, reduction reaction” value was 0.691. On to `[Cl][Hg][Cl]` [HgCl2, mercury chloride], for which the Residual activity in assay [1] (setting [11]) is listed as 62%. In assay [1] (setting [10]), the “effect … (inhibition / stabilization), in words” value is given as “slightly inhibited”. With `[Cl-].[K+]` [KCl], in assay [1] (setting [7]), the Residual activity is listed as 106%.

These data come from patent US7202069B2, “(R)-2-octanol dehydrogenases, methods for producing the enzymes, DNA encoding the enzymes, and methods for producing alcohols using the enzymes” (Daicel Chemical Industries, Ltd., priority 2000, dated 2007).
